What was measured:
Format in all cases: binding, mouse
[1] = test system: monoclonal anti-theophylline antibody; experiment: Competitive kinetics: theophylline derivatives mixed with aminotheophylline-conalbumin conjugate over captured anti-theophylline Mab (BIAcore SPR); conditions: 500 nM ligand solution mixed with 620 nM conjugate solution; 10 μl/min for 90 seconds; FIG. 5
Procedure: (§1) A continuous flow of HBS (10 mM Hepes with 0.15M NaCl, 3.4 mM EDTA and 0.05% surfactant P20 at pH 7.4) was maintained over a BIAcore™ sensor chip CM5 (a gold-plated glass slide supporting a carboxymethyldextran layer via a monolayer of long-chain hydrocarbons; supplied by Pharmacia Biosensor AB, Uppsala, Sweden). The carboxylated matrix on the sensor surface was activated by a three-minute injection of a solution containing 0.2M N-ethyl-N'-(3-diethylaminopropyl)carbodiimide (EDC) and 0.05M N-hydroxysuccinimide (NHS). 100 μg/ml of rabbit anti-mouse Fc (RAMFc) antibodies (Pharmacia Biosensor AB, Uppsala, Sweden) in 10 mM acetate buffer, pH 4.75, were then injected followed by a pulse of ethanolamine-hydrochloride, pH 8.5, to block remaining NHS-ester groups.
Different solutions of the above prepared conalbumin conjugate varying in concentration from 100 to 1000 nM, were then injected and the binding curves were recorded.

[2] = test system: monoclonal anti-p24 antibody (Mab 7); experiment: Competitive kinetics: synthetic p24 derived peptides mixed with p24 over captured anti-p24 Mab (BIAcore SPR); conditions: for affinity for the antibody (qualitative): p24 at 60 nM and the peptides at 44 μM, FIG. 4
Procedure: With the above prepared sensor surface docked into the BIAcore™ instrument, a solution of purified monoclonal anti-p24 antibody (Pharmacia Diagnostics AB, Uppsala, Sweden), hereinafter referred to as Mab 7, was injected, the anti-p24 monoclonal antibody thereby being captured by the immobilized RAMFc. Different solutions of HIV core protein p24 (Pharmacia Genetic Engineering, San Diego, USA), varying in concentration from 18.75 to 300 nM, were then injected and the binding curves, relative response in resonance units (RU) versus time in seconds, were recorded (1 RU corresponds to a mass change, caused by the binding of a protein, on the sensor surface of about 1 pg/mm^2; Stenberg, E., et al., J. Colloid and Interface Sci. 143 (1991) 513-526).
100 μl volumes of a 60 nM solution of p24 in HBS were mixed with 100 μl of different concentrations (5 nM to 1 mM) of two synthetic p24 derived peptides corresponding to (i) the regions 329-352 (peptide 7): […] (Mw =2494), and (ii) the regions 332-349 (peptide 5): […] (Mw =1841) (obtained from Dr Ake Engstrom, Department of Immunology, Biomedical Center, University of Uppsala, Sweden). The peptide sequences are according to Ratner et al., Nature 313, 227-284, 1985 and are numbered according to Myers G. et al., Database Human Retroviruses and AIDS, Los Alamos National Laboratory, Los Alamos, U.S.A., 1988. Each mixture was injected at 10 μl/min for two minutes over the sensor surface with captured anti-p24 antibody and the respective binding curves for each peptide were recorded. Peptide 5 was used at the concentrations: 0, 4.91, 14.75, 44.26, 132.78, 398.33, and 1195.00 μM; and peptide 7 at the concentrations 0, 0.005, 0.016, 0.049, 0.147, 0.441, and 1.323 μM.
The binding curves for peptide 5 are shown in overlay plot in FIG. 2, and a corresponding overlay plot of the binding curves for peptide 7 is shown in FIG. 3. […] Evidently, these two peptides have quite different affinities for the immobilized antibody.

[3] = test system: monoclonal anti-histamine antibody; experiment: Competitive kinetics: histamine and methylhistamine mixed with histamine-conalbumin conjugate over captured anti-histamine Mab (BIAcore SPR); conditions: 220 nM ligand solution mixed with 80 nM conjugate solution; 10 μl/min for 8 minutes; FIG. 6
Procedure: as §1
Different solutions of the above prepared conalbumin conjugate, varying in concentration from 100 to 1000 nM, were then injected and the binding curves were recorded. […] For the following competitive experiment, a concentration of 80 nM was chosen.

aminotheophylline
affinity for the antibody (relative ranking) [1]: highest affinity

Cn1c(=O)c2c(ncn2CC(=O)O)n(C)c1=O [acetic acid derivative of theophylline, 7-theophylline acetic acid]
affinity for the antibody (relative ranking) [1]: much lower affinity

DCKTILKALGPAATLEEMMTACQG [peptide 7, synthetic p24 derived peptide, regions 329-352]
peptide concentration at which competing kinetics is seen ([2]; mixed with 60 nM p24 solution, 10 μl/min for two minutes, FIG. 3): 5 nM | affinity for the antibody (qualitative) [2]: high affinity

TILKALGPAATLEEMMTA [peptide 5, synthetic p24 derived peptide, regions 332-349]
peptide concentration at which competition is evident ([2]; mixed with 60 nM p24 solution, 10 μl/min for two minutes, FIG. 2): evident only at μM concentrations | affinity for the antibody (qualitative) [2]: low affinity

NCCc1c[nH]cn1 [histamine]
affinity for the antibody (relative ranking) [3]: methylhistamine has a higher affinity for the antibody than histamine itself

methylhistamine
affinity for the antibody (relative ranking) [3]: higher affinity

From US5753518A, “Method of determining affinity and kinetic properties” (Pharmacia AB, priority 1993, dated 1998)
